Read-outs that look alike come from different tables or passages of the source.
Tests used:
EGFR = EGFR (Homo sapiens, UniProt P00533); test: ADP-Glo kinase assay, EGFR; assay type: biochemical; parameters: purchased BPS Bioscience (assay run externally by the vendor)
aurora A kinase (AURKA) = molecular target: T1, aurora A kinase (AURKA) (Homo sapiens, UniProt O14965); test: ADP-Glo kinase assay, Aurora A; assay type: biochemical
T1 construct: purchased BPS Bioscience (assay run externally by the vendor)
T1 sequence (O14965 1-403): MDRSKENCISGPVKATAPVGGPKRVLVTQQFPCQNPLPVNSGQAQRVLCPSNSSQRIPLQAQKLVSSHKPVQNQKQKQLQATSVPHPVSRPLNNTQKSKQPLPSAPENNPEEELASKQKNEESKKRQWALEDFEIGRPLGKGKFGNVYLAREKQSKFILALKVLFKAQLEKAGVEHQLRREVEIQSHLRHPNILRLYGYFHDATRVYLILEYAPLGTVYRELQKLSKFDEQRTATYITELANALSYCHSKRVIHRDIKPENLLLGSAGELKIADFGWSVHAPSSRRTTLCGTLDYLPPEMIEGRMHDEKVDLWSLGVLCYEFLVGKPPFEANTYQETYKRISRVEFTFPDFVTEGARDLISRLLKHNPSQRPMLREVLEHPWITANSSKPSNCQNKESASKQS

EGFR, sequence (P00533 25-1210): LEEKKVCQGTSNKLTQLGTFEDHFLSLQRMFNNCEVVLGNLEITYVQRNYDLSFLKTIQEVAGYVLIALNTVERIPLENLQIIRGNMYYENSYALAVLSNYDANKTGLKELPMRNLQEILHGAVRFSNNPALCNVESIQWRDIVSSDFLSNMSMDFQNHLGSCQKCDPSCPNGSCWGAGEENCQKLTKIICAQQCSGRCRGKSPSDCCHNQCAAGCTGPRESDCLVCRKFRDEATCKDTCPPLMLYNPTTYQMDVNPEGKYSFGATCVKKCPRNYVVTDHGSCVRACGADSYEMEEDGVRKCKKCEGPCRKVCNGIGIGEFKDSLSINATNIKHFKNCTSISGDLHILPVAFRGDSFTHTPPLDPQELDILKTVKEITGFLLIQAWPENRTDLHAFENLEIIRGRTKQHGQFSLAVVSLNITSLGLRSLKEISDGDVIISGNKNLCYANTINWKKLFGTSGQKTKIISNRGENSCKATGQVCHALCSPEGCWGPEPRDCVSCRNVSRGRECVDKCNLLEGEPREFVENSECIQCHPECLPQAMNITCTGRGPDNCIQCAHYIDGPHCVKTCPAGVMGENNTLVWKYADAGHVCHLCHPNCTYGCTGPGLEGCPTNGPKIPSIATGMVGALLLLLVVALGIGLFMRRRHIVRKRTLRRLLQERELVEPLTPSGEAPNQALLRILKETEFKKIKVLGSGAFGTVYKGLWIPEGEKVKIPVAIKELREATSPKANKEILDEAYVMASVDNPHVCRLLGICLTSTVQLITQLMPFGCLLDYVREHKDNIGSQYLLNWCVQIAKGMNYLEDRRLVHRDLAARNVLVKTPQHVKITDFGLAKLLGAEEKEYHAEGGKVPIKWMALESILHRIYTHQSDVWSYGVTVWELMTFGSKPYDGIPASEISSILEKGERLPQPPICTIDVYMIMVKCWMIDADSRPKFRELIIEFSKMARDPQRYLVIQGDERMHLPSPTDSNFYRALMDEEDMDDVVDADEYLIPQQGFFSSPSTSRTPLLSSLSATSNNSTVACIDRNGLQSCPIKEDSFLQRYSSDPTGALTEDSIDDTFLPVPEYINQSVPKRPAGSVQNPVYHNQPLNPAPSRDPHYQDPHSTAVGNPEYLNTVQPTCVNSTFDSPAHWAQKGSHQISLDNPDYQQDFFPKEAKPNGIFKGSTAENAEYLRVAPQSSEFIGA

EGFR inhibition (in words) (EGFR): single-digit nanomolar EGFR inhibition
IC50 (EGFR; 10 µM ATP, triplicate, read-out: EGFR IC50 ± SD): 6.63 ± 0.98 nM
IC50 (EGFR; 10 µM ATP/0.2 mg/ml Poly-Glu-Tyr, read-out: EGFR IC50 (dose-response curve, supplement)): 6.5 nM
EGFR % Activity Set1 (EGFR; Log[nM] 0): 66%
EGFR % Activity Set2 (EGFR; Log[nM] 0): 62%
EGFR % Activity Set3 (EGFR; Log[nM] 0): 63%
EGFR % Activity Set1 (EGFR; Log[nM] 1.0): 36%
EGFR % Activity Set2 (EGFR; Log[nM] 1.0): 34%
EGFR % Activity Set3 (EGFR; Log[nM] 1.0): 39%
EGFR % Activity Set1 (EGFR; Log[nM] 1.5): 17%
EGFR % Activity Set2 (EGFR; Log[nM] 1.5): 16%
EGFR % Activity Set3 (EGFR; Log[nM] 1.5): 20%
EGFR % Activity Set1 (EGFR; Log[nM] 2.0): 8%
EGFR % Activity Set2 (EGFR; Log[nM] 2.0): 7%
EGFR % Activity Set3 (EGFR; Log[nM] 2.0): 11%
EGFR % Activity Set1 (EGFR; Log[nM] 2.5): 6%
EGFR % Activity Set2 (EGFR; Log[nM] 2.5): 4%
EGFR % Activity Set3 (EGFR; Log[nM] 2.5): 6%
EGFR % Activity Set1 (EGFR; Log[nM] 3.0): 3%
EGFR % Activity Set2 (EGFR; Log[nM] 3.0): 1%
EGFR % Activity Set3 (EGFR; Log[nM] 3.0): 2%
EGFR % Activity Set1 (EGFR; Log[nM] 3.5): 2%
EGFR % Activity Set2 (EGFR; Log[nM] 3.5): 0%
EGFR % Activity Set3 (EGFR; Log[nM] 3.5): 0%
EGFR % Activity Set1 (EGFR; Log[nM] 4.0): 1%
EGFR % Activity Set2 (EGFR; Log[nM] 4.0): 0%
EGFR % Activity Set3 (EGFR; Log[nM] 4.0): 0%
EGFR % Activity Set1 (EGFR; Log[nM] 4.5): 0%
EGFR % Activity Set2 (EGFR; Log[nM] 4.5): 0%
EGFR % Activity Set3 (EGFR; Log[nM] 4.5): 0%
EGFR % Activity Set1 (EGFR; Log[nM] 5.0): 0%
EGFR % Activity Set2 (EGFR; Log[nM] 5.0): 0%
EGFR % Activity Set3 (EGFR; Log[nM] 5.0): 0%
IC50 (aurora A kinase (AURKA); 10 µM ATP, triplicate, read-out: AURKA IC50 ± SD): 3130 ± 750 nM
IC50 (aurora A kinase (AURKA); 10 µM ATP/0.2 mg/ml Kemptide, read-out: Aurora A IC50 (dose-response curve, supplement)): 3100 nM
Aurora A % Activity Set1 (aurora A kinase (AURKA); Log[nM] 0): 99%
Aurora A % Activity Set2 (aurora A kinase (AURKA); Log[nM] 0): 100%
Aurora A % Activity Set3 (aurora A kinase (AURKA); Log[nM] 0): 90%
Aurora A % Activity Set1 (aurora A kinase (AURKA); Log[nM] 1.0): 109%
Aurora A % Activity Set2 (aurora A kinase (AURKA); Log[nM] 1.0): 95%
Aurora A % Activity Set3 (aurora A kinase (AURKA); Log[nM] 1.0): 101%
Aurora A % Activity Set1 (aurora A kinase (AURKA); Log[nM] 1.5): 102%
Aurora A % Activity Set2 (aurora A kinase (AURKA); Log[nM] 1.5): 108%
Aurora A % Activity Set3 (aurora A kinase (AURKA); Log[nM] 1.5): 96%
Aurora A % Activity Set1 (aurora A kinase (AURKA); Log[nM] 2.0): 94%
Aurora A % Activity Set2 (aurora A kinase (AURKA); Log[nM] 2.0): 104%
Aurora A % Activity Set3 (aurora A kinase (AURKA); Log[nM] 2.0): 107%
Aurora A % Activity Set1 (aurora A kinase (AURKA); Log[nM] 2.5): 95%
Aurora A % Activity Set2 (aurora A kinase (AURKA); Log[nM] 2.5): 98%
Aurora A % Activity Set3 (aurora A kinase (AURKA); Log[nM] 2.5): 99%
Aurora A % Activity Set1 (aurora A kinase (AURKA); Log[nM] 3.0): 80%
Aurora A % Activity Set2 (aurora A kinase (AURKA); Log[nM] 3.0): 85%
Aurora A % Activity Set3 (aurora A kinase (AURKA); Log[nM] 3.0): 84%
Aurora A % Activity Set1 (aurora A kinase (AURKA); Log[nM] 3.5): 42%
Aurora A % Activity Set2 (aurora A kinase (AURKA); Log[nM] 3.5): 48%
Aurora A % Activity Set3 (aurora A kinase (AURKA); Log[nM] 3.5): 49%
Aurora A % Activity Set1 (aurora A kinase (AURKA); Log[nM] 4.0): 19%
Aurora A % Activity Set2 (aurora A kinase (AURKA); Log[nM] 4.0): 22%
Aurora A % Activity Set3 (aurora A kinase (AURKA); Log[nM] 4.0): 19%
Aurora A % Activity Set1 (aurora A kinase (AURKA); Log[nM] 4.5): 8%
Aurora A % Activity Set2 (aurora A kinase (AURKA); Log[nM] 4.5): 9%
Aurora A % Activity Set3 (aurora A kinase (AURKA); Log[nM] 4.5): 8%
Aurora A % Activity Set1 (aurora A kinase (AURKA); Log[nM] 5.0): 5%
Aurora A % Activity Set2 (aurora A kinase (AURKA); Log[nM] 5.0): 4%
Aurora A % Activity Set3 (aurora A kinase (AURKA); Log[nM] 5.0): 3%
SMILES: Clc1cccc(Nc2ncnc3[nH]ccc23)c1 [Compound 11, N^4-(3-chlorophenyl)-7H-pyrrolo[2,3-d]pyrimidin-4-amine]
